Measured values published in US20240043427A1 (Gilead Sciences, Inc., priority 2020, published 2024).

Legend:
CD73 [1] = target: T1, CD73 (Homo sapiens (Human), UniProt P21589); assay: MDA-MB-231 Cell Based CD73 Activity Assay (DMEM); conditions: MDA-MB-231-GFP cells, DMEM medium with 10% human plasma, 200 uM AMP
CD73 [2] = target: T1, CD73; type: biochemical; conditions: 1 mM NaH2PO4 in enzyme buffer, CD73 0.3 nM, AMP 15 uM

T1 sequence (P21589 27-574): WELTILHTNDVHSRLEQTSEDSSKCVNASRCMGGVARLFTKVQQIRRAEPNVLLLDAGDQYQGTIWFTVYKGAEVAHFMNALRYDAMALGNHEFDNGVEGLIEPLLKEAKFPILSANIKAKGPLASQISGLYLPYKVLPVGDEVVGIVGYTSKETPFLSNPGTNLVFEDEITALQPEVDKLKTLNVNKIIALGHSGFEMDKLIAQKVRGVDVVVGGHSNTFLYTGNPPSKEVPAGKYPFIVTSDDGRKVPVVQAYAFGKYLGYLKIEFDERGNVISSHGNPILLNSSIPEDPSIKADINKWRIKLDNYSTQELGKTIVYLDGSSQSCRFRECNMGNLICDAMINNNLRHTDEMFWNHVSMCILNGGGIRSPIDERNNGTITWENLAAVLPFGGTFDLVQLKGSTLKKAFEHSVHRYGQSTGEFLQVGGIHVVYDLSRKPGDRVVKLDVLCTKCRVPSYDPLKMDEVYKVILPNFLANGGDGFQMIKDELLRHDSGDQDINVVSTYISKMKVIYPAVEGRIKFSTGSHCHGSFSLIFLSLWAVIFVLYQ

Structure (SMILES) | EC50 (CD73 [1]) [µM] | IC50 (CD73 [2]) [µM]
O=c1[nH]cc(-c2cc(N3CC[C@H](CC(F)F)C3)c3nccn3n2)c(=O)[nH]1 [Example 454, (R)-5-(8-(3-(2,2-difluoroethyl)pyrrolidin-1-yl)imidazo[1,2-b]pyridazin-6-yl)pyrimidine-2,4(1H,3H)-dione] | 0.0506 | 0.0287
N#Cc1ccc([C@H]2C[C@@H]2c2cc(-c3c[nH]c(=O)[nH]c3=O)nn3ccnc23)cc1F [Example 467, 4-((1S,2S)-2-(6-(2,4-dioxo-1,2,3,4-tetrahydropyrimidin-5-yl)imidazo[1,2-b]pyridazin-8-yl)cyclopropyl)-2-fluorobenzonitrile] | 0.00386 | 0.00085
O=c1[nH]cc(-c2cc([C@H]3C[C@@H]3c3ccc(F)cc3F)n3nccc3n2)c(=O)[nH]1 [Example 469, 5-(7-((1S,2S)-2-(2,4-difluorophenyl)cyclopropyl)pyrazolo[1,5-a]pyrimidin-5-yl)pyrimidine-2,4(1H,3H)-dione] | 0.015 | 0.00173
O=c1[nH]cc(-c2cc(N3C[C@@H](F)[C@@H](F)C3)n3ncnc3n2)c(=O)[nH]1 [Example 472, 5-(7-((3R,4S)-3,4-difluoropyrrolidin-1-yl)-[1,2,4]triazolo[1,5-a]pyrimidin-5-yl)pyrimidine-2,4(1H,3H)-dione] | 0.0586 | 0.0156
COC1CN(c2cc(-c3c[nH]c(=O)[nH]c3=O)nn3ccnc23)CC1(F)F (centres unmarked) [Example 473, 5-(8-(3,3-difluoro-4-methoxypyrrolidin-1-yl)imidazo[1,2-b]pyridazin-6-yl)pyrimidine-2,4(1H,3H)-dione] | 0.0183 | 0.00576
CC(C)Cc1cn2nc(-c3c[nH]c(=O)[nH]c3=O)cc(N3CC(F)(F)C4(CC4)C3)c2n1 [Example 475, 5-(8-(7,7-difluoro-5-azaspiro[2.4]heptan-5-yl)-2-isobutylimidazo[1,2-b]pyridazin-6-yl)pyrimidine-2,4(1H,3H)-dione] | 0.932 | 0.0321
O=C1CCN(c2cc(-c3c[nH]c(=O)[nH]c3=O)nn3ccnc23)N1 [Example 480, 5-(8-(3-oxopyrazolidin-1-yl)imidazo[1,2-b]pyridazin-6-yl)pyrimidine-2,4(1H,3H)-dione] | 1.92 | > 0.25
O=c1[nH]cc(-c2cc(N3CCCCCC3)c3nccn3n2)c(=O)[nH]1 [Example 483, 5-(8-(azepan-1-yl)imidazo[1,2-b]pyridazin-6-yl)pyrimidine-2,4(1H,3H)-dione] | 0.566 | > 0.25
CC1CCN(c2cc(-c3c[nH]c(=O)[nH]c3=O)nn3ccnc23)CCC1(F)F (centres unmarked) [Example 484, 5-(8-(4,4-difluoro-5-methylazepan-1-yl)imidazo[1,2-b]pyridazin-6-yl)pyrimidine-2,4(1H,3H)-dione] | 0.18 | 0.0687
CC(C)(O)CCNc1cc(-c2c[nH]c(=O)[nH]c2=O)nn2ccnc12 [Example 485, 5-(8-((3-hydroxy-3-methylbutyl)amino)imidazo[1,2-b]pyridazin-6-yl)pyrimidine-2,4(1H,3H)-dione] | 0.7 | > 0.25
O=c1[nH]cc(-c2cc(NCCc3ccccc3)c3nccn3n2)c(=O)[nH]1 [Example 487, 5-(8-(phenethylamino)imidazo[1,2-b]pyridazin-6-yl)pyrimidine-2,4(1H,3H)-dione] | 0.081 | 0.0279
CC(C)(C)OC(=O)N1CC2(C1)CN(c1cc(-c3c[nH]c(=O)[nH]c3=O)nn3ccnc13)CC2(F)F [Example 488, tert-butyl 6-(6-(2,4-dioxo-1,2,3,4-tetrahydropyrimidin-5-yl)imidazo[1,2-b]pyridazin-8-yl)-8,8-difluoro-2,6-diazaspiro[3.4]octane-2-carboxylate] | 0.013 | 0.0169
O=c1[nH]cc(-c2cc(NCCc3cccc(C(F)(F)F)c3)c3nccn3n2)c(=O)[nH]1 [Example 489, 5-(8-((3-(trifluoromethyl)phenethyl)amino)imidazo[1,2-b]pyridazin-6-yl)pyrimidine-2,4(1H,3H)-dione] | 1.68 | > 0.25
O=c1[nH]cc(-c2cc(NCCc3cccc(Cl)c3)c3nccn3n2)c(=O)[nH]1 [Example 490, 5-(8-((3-chlorophenethyl)amino)imidazo[1,2-b]pyridazin-6-yl)pyrimidine-2,4(1H,3H)-dione] | 0.463 | 0.095

Now from value to compound:

EC50 (CD73 [1]) [µM] | IC50 (CD73 [2]) [µM] | Structure (SMILES)
0.046 | 0.0149 | O=c1[nH]cc(-c2cc(N3CC(F)(C(F)(F)F)C3)c3ncc(Cl)n3n2)c(=O)[nH]1 [Example 455, 5-(3-chloro-8-(3-fluoro-3-(trifluoromethyl)azetidin-1-yl)imidazo[1,2-b]pyridazin-6-yl)pyrimidine-2,4(1H,3H)-dione]
0.00015 | 0.00053 | O=c1[nH]cc(-c2cc([C@H]3C[C@@H]3c3ccc4cnn(CC(F)(F)F)c4c3)n3nccc3n2)c(=O)[nH]1 [Example 456, 5-(7-((1S,2S)-2-(1-(2,2,2-trifluoroethyl)-1H-indazol-6-yl)cyclopropyl)pyrazolo[1,5-a]pyrimidin-5-yl)pyrimidine-2,4(1H,3H)-dione]
0.00967 | 0.00352 | CC(C)NC(=O)CCC(F)(F)COc1cc(-c2c[nH]c(=O)[nH]c2=O)nn2ccnc12 [Example 457, 5-((6-(2,4-dioxo-1,2,3,4-tetrahydropyrimidin-5-yl)imidazo[1,2-b]pyridazin-8-yl)oxy)-4,4-difluoro-N-isopropylpentanamide]
0.0132 | 0.00404 | O=C(CCC(F)(F)COc1cc(-c2c[nH]c(=O)[nH]c2=O)nn2ccnc12)NCC(F)(F)F [Example 458, 5-((6-(2,4-dioxo-1,2,3,4-tetrahydropyrimidin-5-yl)imidazo[1,2-b]pyridazin-8-yl)oxy)-4,4-difluoro-N-(2,2,2-trifluoroethyl)pentanamide]
0.00038 | 0.00075 | O=c1[nH]cc(-c2cc([C@H]3C[C@@H]3c3ccc4c(Cl)nn(CC(F)(F)F)c4c3)c3nccn3n2)c(=O)[nH]1 [Example 459, 5-(8-((1S,2S)-2-(3-chloro-1-(2,2,2-trifluoroethyl)-1H-indazol-6-yl)cyclopropyl)imidazo[1,2-b]pyridazin-6-yl)pyrimidine-2,4(1H,3H)-dione]
0.00038 | 0.00046 | O=c1[nH]cc(-c2cc([C@H]3C[C@@H]3c3cc(Cl)c4cnn(CC(F)(F)F)c4c3)c3nccn3n2)c(=O)[nH]1 [Example 460, 5-(8-((1S,2S)-2-(4-chloro-1-(2,2,2-trifluoroethyl)-1H-indazol-6-yl)cyclopropyl)imidazo[1,2-b]pyridazin-6-yl)pyrimidine-2,4(1H,3H)-dione]
0.00324 | 0.00086 | N#Cc1ccc([C@H]2C[C@@H]2c2cc(-c3c[nH]c(=O)[nH]c3=O)nn3ccnc23)cc1 [Example 465, 4-((1S,2S)-2-(6-(2,4-dioxo-1,2,3,4-tetrahydropyrimidin-5-yl)imidazo[1,2-b]pyridazin-8-yl)cyclopropyl)benzonitrile]
0.00013 | 0.00023 | O=c1[nH]cc(-c2cc([C@H]3C[C@@H]3c3ccc4cnn(CC(F)(F)F)c4c3)c3ncc(Cl)n3n2)c(=O)[nH]1 [Example 470, 5-(3-chloro-8-((1S,2S)-2-(1-(2,2,2-trifluoroethyl)-1H-indazol-6-yl)cyclopropyl)imidazo[1,2-b]pyridazin-6-yl)pyrimidine-2,4(1H,3H)-dione]
0.0267 | 0.00747 | COC1CN(c2cc(-c3c[nH]c(=O)[nH]c3=O)nn3c(F)cnc23)CC1(F)F (centres unmarked) [Example 474, 5-(8-(3,3-difluoro-4-methoxypyrrolidin-1-yl)-3-fluoroimidazo[1,2-b]pyridazin-6-yl)pyrimidine-2,4(1H,3H)-dione]
0.0322 | 0.0388 | O=c1[nH]cc(-c2cc(N3C[C@H]4CC[C@H]4C3)c3nccn3n2)c(=O)[nH]1 [Example 476, 5-(8-(cis-3-azabicyclo[3.2.0]heptan-3-yl)imidazo[1,2-b]pyridazin-6-yl)pyrimidine-2,4(1H,3H)-dione]
0.952 | > 0.25 | COC[C@@H]1CCCN1c1cc(-c2c[nH]c(=O)[nH]c2=O)nn2ccnc12 [Example 477, (S)-5-(8-(2-(methoxymethyl)pyrrolidin-1-yl)imidazo[1,2-b]pyridazin-6-yl)pyrimidine-2,4(1H,3H)-dione]
0.0537 | 0.0321 | O=c1[nH]cc(-c2cc(N3CC4CCC4(F)C3)c3nccn3n2)c(=O)[nH]1 (centres unmarked) [Example 478, 5-(8-(1-fluoro-3-azabicyclo[3.2.0]heptan-3-yl)imidazo[1,2-b]pyridazin-6-yl)pyrimidine-2,4(1H,3H)-dione]
0.00906 | 0.0026 | CC1CN(c2cc(-c3c[nH]c(=O)[nH]c3=O)nn3ccnc23)CC1(F)F (centres unmarked) [Example 479, 5-(8-(3,3-difluoro-4-methylpyrrolidin-1-yl)imidazo[1,2-b]pyridazin-6-yl)pyrimidine-2,4(1H,3H)-dione]
0.0444 | 0.0261 | O=c1[nH]cc(-c2cc(N3CC(F)(F)C3)c3nccn3n2)c(=O)[nH]1 [Example 481, 5-(8-(3,3-difluoroazetidin-1-yl)imidazo[1,2-b]pyridazin-6-yl)pyrimidine-2,4(1H,3H)-dione]
1.23 | > 0.25 | O=C1CN(c2cc(-c3c[nH]c(=O)[nH]c3=O)nn3ccnc23)CCN1Cc1ccc(F)cc1 [Example 482, 5-(8-(4-(4-fluorobenzyl)-3-oxopiperazin-1-yl)imidazo[1,2-b]pyridazin-6-yl)pyrimidine-2,4(1H,3H)-dione]
1.01 | > 0.25 | O=c1[nH]cc(-c2cc(NCCCc3ccccc3)c3nccn3n2)c(=O)[nH]1 [Example 486, 5-(8-((3-phenylpropyl)amino)imidazo[1,2-b]pyridazin-6-yl)pyrimidine-2,4(1H,3H)-dione]
1.68 | > 0.25 | O=c1[nH]cc(-c2cc(NCCc3ccccc3Cl)c3nccn3n2)c(=O)[nH]1 [Example 491, 5-(8-((2-chlorophenethyl)amino)imidazo[1,2-b]pyridazin-6-yl)pyrimidine-2,4(1H,3H)-dione]
